From patent US11400283B2, “Pulse generating device for delivery of electrical pulses to a desired tissue of a mammal” (SC[…] AB, priority 2017, dated 2022)

Conditions: rat, 6 hours after electroporation treatment, 800 V/cm, 12 pulses of 250 μs length
Protocol: FIG. 3 schematically illustrates a Gamma Camera image of a rat taken 6 hours after an electroporation treatment with electrical field strength of 800 V/cm and 12 pulses of 250 μs length. […] In FIG. 3, the injection site, the electroporation site and three reference sites are shown.
Further, investigation of the effect of applied electric pulses of 600, 800, 1000, 1200 V/cm; having 100 and 500 μs pulse length, and 2, 4, 6 or 12 pulses, on the accumulation of the radiolabeled pharmaceutical ^99mTc-DTPA that mimics the Bleomycin, in rat muscular tissue after in vivo electro-permeabilization has been performed. Gamma camera measurements is applied to noninvasively quantify the accumulation of ^99mTc-DTPA in the region treated with electrical pulses as previously described.

O=C([O-])CN(CCN(CC(=O)[O-])CC(=O)[O-])CCN(CC(=O)[O-])CC(=O)[O-].[99Tc+4] [99Tcm-DTPA, 99Tcm- diethylene-triamine-penta-acetic-acid]
activity in the electroporated site (Gamma Camera image): high activity | activity in the reference sites (Gamma Camera image): low activity
